Tests used:
[1] = tested on: primary human T cells; test: GFP mRNA LNP transfection of isolated primary human T cells, flow cytometry; assay type: cell-based; design: key to GFP Protein expression: Human T cell: *: The number of asterix symbols indicates protein expression levels interpreted by the inventors from quantitative data; **: The number of asterix symbols indicates protein expression levels interpreted by the inventors from quantitative data; ***: The number of asterix symbols indicates protein expression levels interpreted by the inventors from quantitative data; ****: The number of asterix symbols indicates protein expression levels interpreted by the inventors from quantitative data; *****: The number of asterix symbols indicates protein expression levels interpreted by the inventors from quantitative data; *******: The number of asterix symbols indicates protein expression levels interpreted by the inventors from quantitative data; details: for GFP Protein expression: Human T cell: qualitative grade interpreted from quantitative data; for transfecting T cells in vitro, Mean Fluorescence Intensity (MFI): dose 500 ng, MC3 as control, FIG. 3
Procedure: Downstream processing and analysis of treated T cells were done with flow cytometry and ELISA. Reagents were from Stemcell Technologies, Vancouver, Canada unless otherwise stated. […] At 48H following LNP-mediated mRNA exposure, the treated T cells were harvested by transferring the cell suspensions to pre-labeled 1.5 mL tubes and centrifuged 300×G at 4 degrees C. for 10 minutes. Supernatant was removed and the pellet resuspended in PBS. An amount of 0.5 ul of BD Horizon™ Fixable Viability Stain 575V™ (BD Biosciences), was added, and the mixture incubated in the dark for 10 minutes at RT. This stain binds to intracellular amines of a permeable plasma cell membrane of a necrotic cell and can be used to differentiate a viable cell and a non-viable cell during a flow cytometry assay.
The cells were centrifuged again as before, then washed twice with 1 mL of Stain buffer (BSA, BD Pharminigen), and the washed pellet was placed in 100 μl BSA. The following antibodies were added to each tube of treated cells in 2 μl volumes: CD25, CD8, CD4, (PerCP-Cy™ 5.5 Mouse Anti Human CD25, BV786 Mouse Anti-Human CD8 Clone RPA-T8, and APC-Cy™7 Mouse Anti-Human CD4 Clone SK3, all from BD Pharmingen™) with the exception of the controls: in the eGFP only sample and viability control, no antibody was added. In the single stain compensation tubes, only one antibody per tube was added.
The tubes were incubated at 4 degrees C. for 30 min, whereupon 400 μl of stain buffer (BSA) was added, and the cells were centrifuged again. Cells were washed once with 1 mL of stain buffer and spun down again. Cell pellets were resuspended in 1 mL of stain buffer and added to pre-labeled flow tubes with cell strainer caps (Corning Falcon).
After transfection, flow cytometry was used to generate eGFP or EPO expression levels as well as MFI values for the studies. […]
After transfection, flow cytometry was used to general GFP expression levels as well as MFI values for the studies.
Ionizable lipids of the invention, and MC3, were compared in a composition of CT10 at an N/P ratio of 10 for their ability to induce transfection as measured by MFI of labeled mRNA in T cells (as measured by flow cytometry).
T Cells were prepared and treated as previously described using negative selection and the triple activation protocol.
In order to expose the isolated and activated T cells (Day 0) to the formulated mRNA, […] media, with 1 μg/mL of Recombinant Human ApoE4 (“ApoE”) (Peprotech Inc., Montreal, Canada).
The dose of mRNA LNP was calculated based upon Ribogreen™ assay results. T cells were counted through Trypan blue (Sigma) exclusion and diluted to 500,000 cells/mL. Briefly, in a 12 well plate, 1 mL was aliquoted into each well. ApoE was added to a final concentration of 1 μg/mL in each well. Based upon the calibration, the required amount of mRNA LNP was added (day 3 to 7), and the plate incubated for 48 hours.

[2] = tested on: C57BL/6 mice; test: In vivo delivery of EPO-encoded mRNA LNP via intravenous route, serum EPO ELISA; design: key to EPO Protein expression: IV in mice: *: The number of asterix symbols indicates protein expression levels interpreted by the inventors from quantitative data; **: The number of asterix symbols indicates protein expression levels interpreted by the inventors from quantitative data; ***: The number of asterix symbols indicates protein expression levels interpreted by the inventors from quantitative data; ****: The number of asterix symbols indicates protein expression levels interpreted by the inventors from quantitative data; *****: The number of asterix symbols indicates protein expression levels interpreted by the inventors from quantitative data; *******: The number of asterix symbols indicates protein expression levels interpreted by the inventors from quantitative data; details: for EPO Protein expression: IV in mice: qualitative grade interpreted from quantitative data
From the text: Lipid Nanoparticles with the composition IL/DSPC/Cholesterol/PEG-DMG2000 (LM 02—see Table 3) were used to encapsulate recombinant human erythropoietin (EPO) encoded mRNA with 5-moU modifications [TriLink CleanCapo 5-moU EPO mRNA L7201]. To create the LNP, lipid mix in ethanol was microfluidically mixed with a low PH buffered solution of 5-moU EPO mRNA mixer at an N/P ratio of 6 using a NanoAssemblr® Ignite™ microfluidic mixer. The microfluidically mixed particles were downstream processed using Amicon® ultra 15 10 kDa MWCO units (EMD Millipore) filtration technique. The RNA loaded lipid particles were then characterized for size, PDI and Encapsulation Efficiency (EE). Size and PDI were measured using dynamic light scattering techniques described above, and nucleic acid encapsulation efficiency was calculated using a Quant-iT RiboGreen RNA assay as described supra, modified to use hEPO mNA as the standard instead if the standard RNA in the kit. The hydrodynamic diameter of these mRNA-LNPs was ˜70 nm with a PDI in the range of 0.02 to 0.1 and an encapsulation efficiency of ˜97.8%.
Animals were handled according to the Institutional Animal Care and Use Committee ethics protocols. For experiments, 6-8 week old C57BL/6 mice were purchased from Envigo (South Kent, WA, USA). For in vivo activity, female C57BL/6 mice were treated intravenously with EPO mRNA LNPs at specified dosages of 0.5-3 mg/Kg. Samples of 50-75 μL of blood were collected 6 h post administration via saphenous vein, and at regular time intervals of 24 h or 48 h.
After harvest, blood was immediately prepared to produce serum samples using standard techniques, and stored at −80 degrees C. Briefly, after collection, the blood was allowed to clot at room temperature for 15-30 minutes. The clot was removed by centrifuging the tubes at 1000-2000×g for 10 min at 4 degrees Celsius. The clear golden-yellow color supernatant was carefully removed and transferred to sterile screw-capped clear polypropylene tubes on ice. The serum was then stored, if necessary, at −80° C. until analysis.
Samples were thawed, then analyzed at appropriate dilutions for EPO protein expression and for cytokine/chemokine levels. The total serum EPO levels were evaluated using Quantikine® IVD EPO ELISA kit (Bio-Techne, Minneapolis, MN, USA).
Following i.v administration of a 0.5 mg/Kg dose of recombinant human EPO-encoded mRNA LNPs containing ionizable lipid MC3, PNI 121 or PNI 123 using the LM02 composition at N/P 6, EPO expression levels at 6 h (upper, FIG. 6) and at 24 h (lower, FIG. 6) in C56BL/6 mice were examined; hEPO protein was measured using Quantikine® IVD® ELISA Human Erythropoietin Immunoassay protocol.

Row | SMILES | GFP Protein expression: Human T cell [1] | EPO Protein expression: IV in mice [2] | other results
1 | CC/C=C\CC1C(CC(=O)OCC(COCCCCCCCC/C=C\C/C=C\CCCCC)OCCCCCCCC/C=C\C/C=C\CCCCC)CCC1OC(=O)CCCN(C)C (stereo not shown) [PNI 101] | **** | ** | transfection efficiency in T cells from different donors ([1]; CT10, N/P 10, 48 h after treatment, six donors, FIG. 2): greater than those containing MC3 in six tested donors; Cell viability ([1]; CT10, N/P 10, compared to untreated cells (control)): unaffected; transfection efficiency ([1]; CT10 composition, N/P 10, LNP 7 days post activation, FIG. 1): greater transfection efficiency than either DODMA or MC3
2 | CC/C=C\CC1C(CC(=O)OCC(COCCCCCCCC/C=C\C/C=C\CCCCC)OCCCCCCCC/C=C\C/C=C\CCCCC)CCC1OC(=O)C1(C)CCN(C)CC1 (stereo not shown) [PNI 123] | *** | *** | delivering hEPO and expressing hEPO in vivo ([2]; i.v., 1 and 3 mg/Kg, LM02, N/P 6, 6 h and 24 h, FIG. 7): performed very well against MC3 LNP
3 | CC/C=C\CC1C(CC(=O)OCC(COCCCCCCCC/C=C\C/C=C\CCCCC)OCCCCCCCC/C=C\C/C=C\CCCCC)CCC1OC(=O)C1CCN(C)CC1 (stereo not shown) [PNI 132] | ******* | *** | transfecting T cells in vitro, Mean Fluorescence Intensity (MFI) ([1]; CT10 composition): substantially as good or better than MC3
4 | CC/C=C\CC1C(CC(=O)OC(CCCCCCCCC2CC2CCCCCCCC)CCCCCCCCC2CC2CCCCCCCC)CCC1OC(=O)CCCN(C)C (stereo not shown) [PNI 516] | ***** | **** | serum rhEPO expression level ([2]; i.v., 0.5 mg/Kg, FIG. 8): on par with MC3
5 | CC/C=C\CC1C(CC(=O)OCC(COCCCCCCCC/C=C\C/C=C\CCCCC)OCCCCCCCC/C=C\C/C=C\CCCCC)CCC1OC(=O)CCCN(CC)CC (stereo not shown) [PNI 542] | ***** | *** | 
6 | CC/C=C\CC1C(CC(=O)OCC(COCCCCCCCCC2CC2CCCCCCCC)OCCCCCCCCC2CC2CCCCCCCC)CCC1OC(=O)CCN(C)C (stereo not shown) [PNI 544] | *** | *** | 
7 | CCCCCCCCC1CC1CCCCCCCCOCC(COC(=O)CC1CCC(OC(=O)CCCN(C)C)C1CC1CC1CC)OCCCCCCCCC1CC1CCCCCCCC (stereo not shown) [PNI 545] | ***** | *** | 
8 | CCCCCCCCC1CC1CCCCCCCCOCC(COC(=O)CC1CCC(OC(=O)CCN(C)C)C1CC1CC1CC)OCCCCCCCCC1CC1CCCCCCCC (stereo not shown) [PNI 546] | * | * | 
9 | CC/C=C\CC1C(CC(=O)OC(CCCCCCCCC2CC2CCCCCCCC)CCCCCCCCC2CC2CCCCCCCC)CCC1OC(=O)CCN(C)C (stereo not shown) [PNI 549] | ** | *** | 
10 | CC/C=C\CC1C(CC(=O)OCCC(CCCCCCCC)OC(=O)C(CCCCCC)CCCCCCCC)CCC1OC(=O)CCN(C)C (stereo not shown) [PNI 554] | *** | *** | 
11 | CC/C=C\CC1C(CC(=O)OCC(COCCCCCCCC/C=C\C/C=C\CCCCC)OCCCCCCCC/C=C\C/C=C\CCCCC)CCC1OC(=O)CC1CCN(C)C1 (stereo not shown) [PNI 557] | *** | ** | 
12 | CC/C=C\CC1C(CC(=O)OCC(COCCCCCCCC/C=C\C/C=C\CCCCC)OCCCCCCCC/C=C\C/C=C\CCCCC)CCC1OC(=O)CCCN1CCCC1 (stereo not shown) [PNI 558] | * | *** | 
13 | CC/C=C\CC1C(CC(=O)OCC(COCCCCCCCC/C=C\C/C=C\CCCCC)OCCCCCCCC/C=C\C/C=C\CCCCC)CCC1OC(=O)CC1CCCCN1C (stereo not shown) [PNI 559] | ** | *** | 
14 | CC/C=C\CC1C(CC(=O)OC(CCCCCCCCC2CC2CCCCCCCC)CCCCCCCCC2CC2CCCCCCCC)CCC1OC(=O)C1(C)CCN(C)CC1 (stereo not shown) [PNI 560] | **** | **** | 
15 | CC/C=C\CC1C(CC(=O)OCCC(CCCCCCCC)OC(=O)C(CCCCCC)CCCCCCCC)CCC1OC(=O)C1(C)CCN(C)CC1 (stereo not shown) [PNI 565] | ******* | *** | transfecting T cells in vitro, Mean Fluorescence Intensity (MFI) ([1]; CT10 composition): substantially as good or better than MC3

From US12503432B2, “Ionizable lipids for nucleic acid delivery” (Global Life Sciences Solutions Canada ULC, priority 2019, dated 2025)
